Where “and” joins values, the source holds several entries; their conditions need not be identical. Equal entries are not always repeated. Where two headings read alike, the source gives them in different places.
How the values were obtained:
[1] = tested on: posterior vitreous of rabbits; assay: Injection of urea into the vitreous, specialized histological techniques in rabbits; assay type: in vivo; settings: after urea treatment
From the text: (§1) In addition, disinsertion of the posterior vitreous has been observed in patients by the use of slit lamp biomicroscopy and in rabbits by specialized histological techniques after urea treatment.

[2] = tested on: vitreous body of patients; assay: Injection of urea into the vitreous, slit lamp biomicroscopy in patients; assay type: in vivo, human
From the text: as §1

[3] = 10% water solution; cited from earlier work
[4] = tested on: human patients with retinitis pigmentosa; assay: Double masked placebo controlled dose escalation study in retinitis pigmentosa (Example VII); assay type: in vivo
Procedure: A double masked placebo controlled, randomized, dose escalation study was done in 32 human patients with retinitis pigmentosa. All patients were treated with a single intravitreal injection of 50 μl of a urea-containing formulation. Three groups of patients received different concentrations of urea. One group received a formulation containing 1.5% urea, 0.9% sodium chloride, and sterile water for injection. A second group received an identical formulation except the formulation contained 3.0% urea. A third group received an identical formulation except the formulation contained 6.0% urea. A placebo group received 50 μl of 0.9% sodium chloride.
Forty-seven percent of the patient reported an increase of at least 3 lines of best corrected visual acuity measured by ETDRS charts, whereas, only 14% of the placebo patients reported an increase of at least 3 lines of best corrected visual acuity measured by ETDRS charts.
There was no dramatic increase in the visual field of the placebo control patients.

[5] = tested on: patients with nonproliferative diabetic retinopathy; assay: Treatment of nonproliferative diabetic retinopathy (Example VI); assay type: in vivo, human
Procedure: Sixty-nine patients with nonproliferative diabetic retinopathy were each administered a single intravitreal injection of 50 μl of a urea formulation containing 3% urea, 0.9% sodium chloride, and sterile water for injection.
The vitreous liquefaction and vitreous collapse in nonproliferative diabetic retinopathy patients would inhibit the growth and proliferation of the blood vessels, and thus inhibit the progression of diabetic retinopathy. All 69 (of the) patients were followed for six months following the procedure.

[6] = tested on: human patients with optic nerve damage caused by trauma and/or glaucoma; assay: Double masked placebo controlled dose escalation study in optic nerve damage (Example VIII); assay type: in vivo
Procedure: In accordance with the present invention, urea, thiourea, guanidine and possibly the other compounds of General Formula I above are effective to treat neuropathies (e.g., disorders or damage to nerves). In this example, 33 non sighted patients with optic nerve damage caused by trauma and/or glaucoma, with visual acuity of light perception or no light perception were administered a urea-containing formulation, as disclosed herein. The study was a double masked placebo controlled, randomized, dose escalation study conducted with 33 human patients with optic nerve damage. Patients were randomized into 5 groups, Group 1 of 5 patients, Group 2 of 4 patients, Group 3 of 8 patients, Group 4 of 8 patients and Group 5 of 8 patients. Each patient received a single intravitreal injection of 50 μl of an aqueous treatment solution, as follows:
In Six patients the vision improved from No light perception to light perception, in 2 patients the vision improved from light perception to count fingers at 12 inches, in 2 patients the vision improved from no light perception to 20/400 and 20/800 vision and in 2 patients the vision improved from light perception to 20/600 and 20/800 vision. No patients in the placebo group reported any improvement in best corrected visual acuity as measured by ETDRS charts.

[7] = tested on: patients with optic nerve damage related to optic nerve tumors; assay: Treatment of optic nerve damage related to optic nerve tumors (Example VIII); assay type: in vivo, human
Procedure: In another study, three patients with long standing (6 months or longer) optic nerve damage related to optic nerve tumors were treated with a single intravitreal injection of 100 μl of a 6% urea containing formulation. All three patient treated reported a significant improvement in visual acuity after treatment. The patients' visual acuity improved from an average of Count Fingers at 12 inches to 20/200.

[8] = cited from earlier work
[9] = tested on: human patients with single or multiple retinal tears; assay: Intravitreal urea 3 days before pneumatic Retinopexy in patients with retinal tears (Example I); assay type: in vivo
Procedure: All patients received pneumatic Retinopexy treatment 3 days after intravitreal injection of 1.5 mg of urea in 50 μl of aqueous solution prepared according to the formulation set forth in Table 11 above. […] Within 3-7 days after urea injection, 11/12 patients had developed PVD, only 1/12 patients had not developed PVD. Within 90 days of the urea injection that one patient also developed PVD.
Within 3 days of treatment 9/12 patients had complete retinal reattachment and macular attachment, and within 7 days all 12 patients had complete retinal reattachment and macular attachment.
(Tornambe, P. E. et. al. Opthalmology, 1989; 96: 772-783).

[10] = tested on: human patients requiring pars plana vitrectomy; assay: Intravitreal urea as adjunct to vitrectomy (Example V); assay type: in vivo
Procedure: In this example, five human patients requiring pars plana vitrectomy for various indications were treated one week prior to vitrectomy with a single intravitreal injection of 100 μl of a urea in aqueous solution. The formulation contained 6% urea, 0.9% sodium chloride, and sterile water for injection (qs 100%). All patients underwent routine vitrectomies 8 to 10 days after the urea injection. The minimum waiting time between the urea injection and the vitrectomy procedure is about 1 day to 3 days.
No vitrectomy cutter was used.

[11] = tested on: human patients with diabetes-related nonclearing vitreous hemorrhage; assay: Treatment of vitreous hemorrhage (Example IV); assay type: in vivo
Procedure: The formulations and treatments disclosed herein are also effective to treat vitreous hemorrhage. In this example, seven human patients were treated for diabetes-related nonclearing vitreous hemorrhage. Each patient received a single intravitreal injection of 100 μl of a formulation containing urea. The formulation used in this example contained 6% urea, 0.9% sodium chloride, and sterile water for injection (qs 100%).

[12] = cited from earlier work; remark: listed apart in the source
[13] = tested on: stage 3 idiopathic macular hole patient; assay: Intravitreal urea followed by C3F8 gas in a patient with idiopathic macular hole (Example II); assay type: in vivo, human; settings: for visual acuity: baseline 20/400; for size of the macular hole: baseline 450 μm
Procedure: The macular defect was classified as a stage 3 macular hole, and the patient's visual acuity was recorded at 20/400 at a baseline time point prior to urea treatment. […] Seven days after the intravitreal urea injection the patient was administered an intravitreal injection of 0.3 ml of expandable gas (C3F8).
One week after administration of the gas, the size of the macular hole had decreased from 450 μm to a smaller size of 200 μm and the patient's vision had improved from a baseline visual acuity of 20/400 to 20/80. Two weeks post treatment the size of the macular hole had decreased from 450 μm to a smaller size of 90 μm and the patient's vision had improved from a baseline visual Acuity of 20/400 to 20/70. Four weeks post treatment the size of the macular hole had decreased from 450 μm to a smaller size of 60 μm and the patient's vision had improved from a baseline visual acuity of 20/400 to 20/60.

[14] = one week after administration of the gas

For NC(N)=O [urea], the “disinsertion of the posterior vitreous” value [1] was “observed”, the “liquefaction of the vitreous body and breakdown of hyaluronic acid of the vitreous” value ([2]; after injection of urea into the vitreous) was “within several days” and the “disinsertion of the posterior vitreous” value ([2]; patients, slit lamp biomicroscopy, after urea treatment) was “observed”. The pH [3] was 7.2, the “patients with increase of at least 3 lines of best corrected visual acuity measured by ETDRS charts” value ([4]; single intravitreal 50 μl of 1.5%, 3.0% or 6.0% urea, groups pooled) was “Forty-seven” and the “average improvement in the patient's visual field” value ([4]; urea-treated patients) was 10 degrees. For the same molecule, the “time to complete vitreous liquefaction and collapse after administration” value ([5]; 50 μl of 3% urea) was 2-4 weeks, the “patients with complete vitreous liquefaction and collapse” value ([5]; single intravitreal 50 μl of 3% urea, 0.9% sodium chloride) was 69 patients and the “patients whose vision improved from No light perception to light perception” value ([6]; 50 μl of 0.2-6.0% urea) was “Six”. For the same molecule, the “patients whose vision improved from light perception to 20/600 and 20/800 vision” value ([6]; 50 μl of 0.2-6.0% urea) was 2 patients, the “patients whose vision improved from light perception to count fingers at 12 inches” value ([6]; 50 μl of 0.2-6.0% urea) was 2 patients and the “patients whose vision improved from no light perception to 20/400 and 20/800 vision” value ([6]; 50 μl of 0.2-6.0% urea) was 2 patients. The “patients with increase of best corrected visual acuity measured by ETDRS charts” value ([6]; single intravitreal 50 μl of 0.2%, 1.5%, 3.0% or 6.0% urea) was “Forty-three”, the “average visual acuity after treatment” value ([7]; from an average of Count Fingers at 12 inches, 100 μl of 6% urea) was 20/200 and the “patients reporting a significant improvement in visual acuity after treatment” value ([7]; single intravitreal 100 μl of 6% urea, three patients) was “All three”. The stability ([8]; aqueous urea solutions, develop an odor of ammonia) was “gradually degrade”, the stability ([8]; stored under dry conditions at room temperature) was “stable” and the “adverse effects of the intravitreal injection, ophthalmoscopic and biomicroscopic examination” value ([9]; 1.5 mg urea in 50 μl intravitreal, 12 patients) was “no adverse effects”. The “average improvement of visual acuity per patient” value ([9]; 6 months after Retinopexy) was 4.2 lines and 21 letters, the “patients with improvement of more than 2 lines of visual acuity (11 letters)” value ([9]; 6 months post Retinopexy) was 64% and the “occurrence of new retinal tears with associated retinal detachment” value ([9]; 90 days follow up) was “none of the patients”. For the same molecule, the “time by which the one remaining patient developed PVD” value ([9]; after urea injection, 1.5 mg in 50 μl) was ≤ 90 days, the “patients with improvement of more than 2 lines of visual acuity (11 letters)” value ([9]; urea 3 days prior to pneumatic Retinopexy, time point not given) was 64% and the “patients who had developed PVD” value ([9]; within 3-7 days after urea injection, 1.5 mg in 50 μl) was 11/12. The “patients with complete retinal reattachment and macular attachment” value ([9]; within 3 days of treatment) was 9/12, the “patients with complete retinal reattachment and macular attachment” value ([9]; within 7 days) was 12 patients and the “decrease in surgical time relative to patients who did not receive urea” value ([10]; 100 μl of 6% urea one week prior to vitrectomy) was 70%. The “vitreous liquefaction and collapse” value ([10]; by one week after single intravitreal 100 μl of 6% urea, five patients) was “complete vitreous liquefaction and collapse”, the “rate of hemorrhagic blood clearance compared with normal clearance rates in clinical practice” value ([11]; 100 μl of 6% urea) was “significantly accelerated” and the “patients with clearance of vitreous hemorrhage sufficient to treat the retina with photocoagulation” value ([11]; single intravitreal 100 μl of 6% urea, 0.9% sodium chloride, seven patients) was “All seven”. The solubility ([12]; in chloroform or ether) was “practically insoluble”, the solubility ([12]; in water, ethanol, methanol and glycerol) was “very soluble” and the “adverse effects of the intravitreal injection, ophthalmoscopic and biomicroscopic examination” value ([13]; 1.5 mg urea in 50 μl) was “no adverse effects”. The visual acuity ([13]; four weeks post treatment) was 20/60, the “size of the macular hole” value ([13]; four weeks post treatment) was 60 μm and the visual acuity [13, 14] was 20/80. The “size of the macular hole” value [13, 14] was 200 μm, the “time to complete Posterior Vitreous Detachment (PVD)” value ([13]; single intravitreal 1.5 mg urea in 50 μl, Table III formulation) was ≤ 7 days and the visual acuity ([13]; two weeks post treatment) was 20/70. The “size of the macular hole” value ([13]; two weeks post treatment) was 90 μm.

Source: patent publication US8691874B2, “Treatment of ophthalmic disorders using urea” (Kato Pharmaceuticals, Inc., priority 2000, dated 2014)
